According to ChEMBL document CHEMBL4418300, “Uses of fahd1” (2016):

Target: T1, Oxaloacetate tautomerase FAHD1, mitochondrial (Homo sapiens, UniProt Q6P587)
T1 sequence (Q6P587 whole entry): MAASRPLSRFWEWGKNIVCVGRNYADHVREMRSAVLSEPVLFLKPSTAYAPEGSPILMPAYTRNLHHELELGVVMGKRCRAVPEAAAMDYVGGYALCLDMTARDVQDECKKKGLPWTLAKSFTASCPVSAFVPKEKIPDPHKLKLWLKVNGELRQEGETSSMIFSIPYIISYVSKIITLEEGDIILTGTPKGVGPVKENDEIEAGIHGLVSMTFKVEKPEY
Experiment: Inhibition of wild-type recombinant N-terminal His6 and S-tagged full-length human FAHD1 expressed in Escherichia coli using oxaloacetate as substrate by photometric analysis

In the case of `O=C([O-])C(=O)[O-].[Na+].[Na+]` [SODIUM OXALATE], the IC50 is reported as 20 µM.
